According to ChEMBL document CHEMBL1201862, “PubChem BioAssay data set” (2004):
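Protocol summary: plate cells (96-well), add compound at 5 concentrations, incubate 48 h, interpolate endpoints linearly. GI50 = concentration required for 50% inhibition of growth.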 Calls of active or inactive are those of the source. No stated cut-off is given here; in the data, active = GI50 up to about 1.1 µM and inactive = higher.

What was measured:
Assay in all cases: growth of human tumour cells (NCI), 48 h
IGROV-1 = system: IGROV-1
NCI-H460 = system: NCI-H460
MOLT-4 = system: MOLT-4
PC-3 = system: PC-3
SF-295 = system: SF-295
UACC-62 = system: UACC-62
DMS-273 = system: DMS-273
NCI-H23 = system: NCI-H23
NCI-H226 = system: NCI-H226
U-251 = system: U-251
SNB-78 = system: SNB-78
LOX IMVI = system: LOX IMVI
OVCAR-4 = system: OVCAR-4
786-0 = system: 786-0
MDA-N = system: MDA-N
SF-539 = system: SF-539
OVCAR-5 = system: OVCAR-5
SNB-75 = system: SNB-75
HOP-62 = system: HOP-62
K562 = system: K562
SK-MEL-2 = system: SK-MEL-2
SF-268 = system: SF-268
CAKI-1 = system: CAKI-1
OVCAR-8 = system: OVCAR-8
SK-MEL-28 = system: SK-MEL-28
A498 = system: A498
SW-620 = system: SW-620
M14 = system: M14
UACC-257 = system: UACC-257
UO-31 = system: UO-31
SK-MEL-5 = system: SK-MEL-5
A549 = system: A549
LXFL 529 = system: LXFL 529
SK-OV-3 = system: SK-OV-3
MDA-MB-435 = system: MDA-MB-435
COLO 205 = system: COLO 205
HOP-18 = system: HOP-18
SR = system: SR
TK-10 = system: TK-10
RXF 393 = system: RXF 393
ACHN = system: ACHN
RPMI-8226 = system: RPMI-8226
Malme-3M = system: Malme-3M
HCT-15 = system: HCT-15
KM-20L2 = system: KM-20L2
HCC 2998 = system: HCC 2998
DLD-1 = system: DLD-1
HL-60 = system: HL-60
EKVX = system: EKVX
SN12C = system: SN12C
HT-29 = system: HT-29
HCT-116 = system: HCT-116
CCRF-CEM = system: CCRF-CEM
OVCAR-3 = system: OVCAR-3
MDA-MB-231 = system: MDA-MB-231
BT-549 = system: BT-549

Measured: GI50

C=C(CC(NC(=O)c1ccc(C(CC)Cc2cnc3nc(N)nc(N)c3n2)cc1)C(=O)O)C(=O)O (stereo unspecified)
5.31 nM: HCT-15
active: IGROV-1 27.4 nM | NCI-H460 5.89 nM | MOLT-4 13.6 nM | PC-3 52.7 nM | SF-295 1.13 nM | UACC-62 163 nM | DMS-273 0.644 nM | NCI-H23 244 nM | NCI-H226 87.5 nM | U-251 152 nM | LOX IMVI 4.36 nM | OVCAR-4 246 nM | 786-0 1.74 nM | MDA-N 46.2 nM | SF-539 3.19 nM | OVCAR-5 653 nM | SNB-75 154 nM | HOP-62 30 nM | K562 1.85 nM | SK-MEL-2 933 nM | SF-268 73.1 nM | CAKI-1 169 nM | OVCAR-8 21.7 nM | SK-MEL-28 209 nM | A498 632 nM | SW-620 67.3 nM | M14 20 nM | UACC-257 839 nM | UO-31 114 nM | SK-MEL-5 85.7 nM | A549 5.67 nM | LXFL 529 2.39 nM | SK-OV-3 214 nM | MDA-MB-435 36.9 nM | COLO 205 79.6 nM | HOP-18 42.9 nM | SR 3.16 nM | TK-10 71.9 nM | RXF 393 237 nM | ACHN 18.4 nM | RPMI-8226 29 nM | Malme-3M 350 nM | KM-20L2 10 nM | HCC 2998 239 nM | DLD-1 0.574 nM | HL-60 3.76 nM | SN12C 24.4 nM | HT-29 35.6 nM | HCT-116 2.86 nM | CCRF-CEM 10 nM | OVCAR-3 190 nM | MDA-MB-231 73.6 nM | BT-549 68.7 nM
inactive: SNB-78 27700 nM | EKVX 52700 nM
